In the experiment the test system is HIV-1 (NL4-3 strain). The experiment can be described thus: Assay for Inhibition of HIV Replication (VIKING, MT4-gag-GFP reporter cells). It counts as cell-based. As to conditions: MT4-GFP cells infected with HIV-1 NL4-3, infected cells at 48 h / 24 h, read-out: VIKING IP50 (nM) with 0% NHS. The protocol:
This assay may be useful for assessing the ability of a compound of the present invention to inhibit HIV replication. The assay is a kinetic assay that employs a reporter cell line (MT4-gag-GFP) to quantify the number of new cells infected in each round of replication.
MT4-GFP cells (250,000 cells/ml) are bulk-infected with HIV-1 (NL4-3 strain) at low multiplicity of infection (MOI) in RPMI+10% FBS for 24 hours. Cells are then washed once in RPMI+10% FBS and resuspended in RPMI+0% normal human serum (NHS). Test compounds are serial-diluted in DMSO on ECHO. The infected MT4-GFP cells are added to a 384-well poly-D-lysine coated black plate with clear bottom in which the diluted test compounds are placed. The cells are seeded at 8,000 cells per well and the final DMSO concentration is adjusted to 0.4%. The infected cells (Green GFP cells) are then quantified at both 24 and 48 hours post incubation using Acumen eX3. Viral reproductive ratio (R0) is determined using the number of infected cells at 48 hours divided by the number of infected cells at 24 hours. Percent viral growth inhibition is calculated by [1-(R—Rtripledrug)/(RDMSO—Rtripledrug)]*100. Compound potency IP or IC50 may be determined using a 4-parameter dose response curve analysis.

Setting [1] is: Human immunodeficiency virus 1, NL43, 0% normal human serum.

SMILES strings stand for the structures. Where two headings read alike, the source gives them in different places.

In the case of `COCCN1CN2CC(OC)c3c(C(=O)NCc4ccc(F)cc4F)c(=O)c(O)c(n32)C1=O` (single isomer, unassigned) [Compound 9], the IC50 under setting [1] came out at 1.4 nM.
Consider `COCCN1CN2CC(OC)c3c(C(=O)NCc4ccc(F)c(Cl)c4F)c(=O)c(O)c(n32)C1=O` (single isomer, unassigned) [Compound 10], for which the IC50 under setting [1] came to 1.4 nM.
Take `COCCN1CN2CC(OC)c3c(C(=O)NCc4ccc(F)c(Cl)c4F)c(=O)c(O)c(n32)C1=O` (single isomer, unassigned) [Compound 11]: the IC50 (0% normal human serum) is 1.1 nM.
For `COCCN1CN2CC(OC)c3c(C(=O)NCc4cccc(Cl)c4F)c(=O)c(O)c(n32)C1=O` (single isomer, unassigned) [Compound 12], the IC50 (0% normal human serum) came out at 2.3 nM.
On the same count and under the same terms, then `COCCN1CN2CC(OC)c3c(C(=O)NCc4cccc(Cl)c4F)c(=O)c(O)c(n32)C1=O` (single isomer, unassigned) [Compound 13], with 1 nM; and `COCCN1CN2CC(OC)c3c(C(=O)NCc4ccc(F)cc4)c(=O)c(O)c(n32)C1=O` (single isomer, unassigned) [Compound 14], with 4.6 nM.
Turning to `COCCN1CN2CC(OC)c3c(C(=O)NCc4ccc(F)cc4)c(=O)c(O)c(n32)C1=O` (single isomer, unassigned) [Compound 15], the IC50 (0% normal human serum) is 1.9 nM.
Regarding `COCCN1CN2CC(OC)c3c(C(=O)NCc4ccccc4F)c(=O)c(O)c(n32)C1=O` (single isomer, unassigned) [Compound 16], the IC50 under setting [1] is 1.5 nM.
Same read-out and setting: the same measure for `COC1CN2CN(CC3CC3)C(=O)c3c(O)c(=O)c(C(=O)NCc4ccc(F)cc4F)c1n32` (single isomer, unassigned) [Compound 18]: 0.4 nM; for `COC1CN2CN(CC3CC3)C(=O)c3c(O)c(=O)c(C(=O)NCc4cccc(Cl)c4F)c1n32` (single isomer, unassigned) [Compound 19]: 2.4 nM.
Take `COC1CN2CN(CC3CC3)C(=O)c3c(O)c(=O)c(C(=O)NCc4cccc(Cl)c4F)c1n32` (single isomer, unassigned) [Compound 20]: the IC50 (0% normal human serum) worked out at 1.2 nM.
As to `COC1CN2CN(CC3CC3)C(=O)c3c(O)c(=O)c(C(=O)NCc4ccc(F)c(Cl)c4)c1n32` (single isomer, unassigned) [Compound 21], the IC50 under setting [1] was 1 nM.
Still for that read-out and setting: then `CCN1CN2CC(OC)c3c(C(=O)NCc4ccc(F)cc4F)c(=O)c(O)c(n32)C1=O` (single isomer, unassigned) [Compound 23], with 4.1 nM.
On the same count and under the same terms, then `CCN1CN2CC(OC)c3c(C(=O)NCc4ccc(F)c(Cl)c4F)c(=O)c(O)c(n32)C1=O` (single isomer, unassigned) [Compound 24], with 1.5 nM.
For `CCN1CN2CC(OC)c3c(C(=O)NCc4ccc(F)c(Cl)c4F)c(=O)c(O)c(n32)C1=O` (single isomer, unassigned) [Compound 25], under “0% normal human serum”, the IC50 turned out to be 0.9 nM.
As to `CCN1CN2CC(OC)c3c(C(=O)NCc4cccc(Cl)c4F)c(=O)c(O)c(n32)C1=O` (single isomer, unassigned) [Compound 26], the IC50 under setting [1] turned out to be 1.5 nM.
Regarding `CCN1CN2CC(OC)c3c(C(=O)NCc4cccc(Cl)c4F)c(=O)c(O)c(n32)C1=O` (single isomer, unassigned) [Compound 27], the IC50 (0% normal human serum) amounted to 1.2 nM.
In the case of `COC1CN2CN(C)C(=O)c3c(O)c(=O)c(C(=O)NCc4ccc(F)cc4F)c1n32` (single isomer, unassigned) [Compound 29], the IC50 under setting [1] worked out at 9.9 nM.
For `COC1CN2CN(C)C(=O)c3c(O)c(=O)c(C(=O)NCc4cccc(Cl)c4F)c1n32` (single isomer, unassigned) [Compound 30], under “0% normal human serum”, the IC50 amounted to 1.5 nM.
On the same count and under the same terms, then `COC1CN2CN(C)C(=O)c3c(O)c(=O)c(C(=O)NCc4cccc(Cl)c4F)c1n32` (single isomer, unassigned) [Compound 31], with 0.5 nM.
Regarding `COC1CN2CN(C)C(=O)c3c(O)c(=O)c(C(=O)NCc4ccc(F)c(Cl)c4)c1n32` (single isomer, unassigned) [Compound 32], under setting [1], the IC50 came out at 1.2 nM.
Take `COC1CN2CN(C)C(=O)c3c(O)c(=O)c(C(=O)NCc4ccc(F)c(Cl)c4)c1n32` (single isomer, unassigned) [Compound 33]: the IC50 (0% normal human serum) came to 0.8 nM.
Regarding `CC(C)N1CN2C(=O)N(C)Cc3c(C(=O)NCc4ccc(F)cc4F)c(=O)c(O)c(n32)C1=O` [Compound 4], the IC50 under setting [1] is 2 nM.
On the same count and under the same terms, then `COCCN1CN2C(=O)N(C)Cc3c(C(=O)NCc4ccc(F)cc4F)c(=O)c(O)c(n32)C1=O` [Compound 5], with 1.7 nM.
Same read-out and setting: then `COC1CN2CN(C(C)C)C(=O)c3c(O)c(=O)c(C(=O)NCc4ccc(F)cc4F)c1n32` (stereo not drawn) [Compound 7], with 13.3 nM; and `CCN1CN2CC(OC)c3c(C(=O)NCc4ccc(F)cc4F)c(=O)c(O)c(n32)C1=O` (stereo not drawn) [Compound 22], with 2.1 nM.
On the same count and under the same terms, then `CCN1Cn2ccc3c(C(=O)NCc4ccc(F)cc4F)c(=O)c(O)c(n32)C1=O` [Compound 34], with 11.5 nM.
As for `CCN1CN2CCc3c(C(=O)NCc4ccc(F)cc4F)c(=O)c(O)c(n32)C1=O` [Compound 35], the IC50 under setting [1] amounted to 2.2 nM.
Regarding `CCN1CN2CCCc3c(C(=O)NCc4ccc(F)cc4F)c(=O)c(O)c(n32)C1=O` [Compound 36], under setting [1], the IC50 turned out to be 11.4 nM.
Consider `COC1CN2n3c(c(O)c(=O)c(C(=O)NCc4ccc(F)cc4F)c31)C(=O)N(C)C21CCOC1` (stereo not drawn) [Compound 37], for which the IC50 (0% normal human serum) turned out to be 8.5 nM.
In the case of `COC1CN2n3c(c(O)c(=O)c(C(=O)NCc4ccc(F)cc4F)c31)C(=O)N(C)C21CCOC1` (stereo not drawn) [Compound 38], the IC50 under setting [1] was found to be 2.6 nM.
For the compound `COC1CN2n3c(c(O)c(=O)c(C(=O)NCc4ccc(F)cc4F)c31)C(=O)N(C)C21CCOC1` (stereo not drawn) [Compound 39], under “0% normal human serum”, the IC50 came out at 2.4 nM.
Still for that read-out and setting: the same measure for `COC1CN2n3c(c(O)c(=O)c(C(=O)NCc4ccc(F)cc4F)c31)C(=O)N(C)C21CCOC1` (stereo not drawn) [Compound 40]: 3.8 nM.
For `CN1CN2CCc3c(C(=O)NCc4c(F)cc(F)cc4F)c(=O)c(O)c(n32)C1=O` [Compound 41], the IC50 under setting [1] is 2.9 nM.
For the compound `CN1CN2CCc3c(C(=O)NCc4ccc(F)cc4F)c(=O)c(O)c(n32)C1=O` [Compound 42], the IC50 under setting [1] was 1.6 nM.
The same measure, in the same setting: the same measure for `CN1CN2CCc3c(C(=O)NCc4c(F)ccc(Cl)c4F)c(=O)c(O)c(n32)C1=O` [Compound 43]: 1.8 nM.

Values taken from patent US10934312B2, “Tricyclic heterocycle compounds useful as HIV integrase inhibitors” (Merck Sharp & Dohme Corp., priority 2016, dated 2021).
